The record followed here is patent publication US20230084927A1, “GLUCOSE UPTAKE INHIBITORS AND USES THEREOF” (METABOMED LTD., priority 2019, published 2023).

SMILES strings stand for the structures. A value given as a limit tells only on which side of the number the result lay.

In general, EC50 refers to the concentration needed to bring the measured effect to its halfway point.

The subject of experiment [1] is SDH-KO-HRAS cells (SDHB-deficient). Kind of experiment: Cellular / differential toxicity assay (CellTiter-Glo, 3 days). As to conditions: Mus musculus, 72 h, toxicity, SDH-KO cells, 3 days, CellTiter-Glo; read-out: EC50 (uM) SDH-KO-HTAS-C17. The format is cell-based, murine. Here is the method:
(§1) Identification of compounds that target specifically SDH-deficient cells was done by screening a library of small-molecule by using a differential toxicity screen with SDHB-proficient vs. SDHB-deficient cells (the […] cells were described in Cardaci 2015).
(§2) Cells Used for the Differential Assays: SDH-WT; SDH-KO-HRAS
(§3) Cell Culture Conditions: • Medium: DMEM-F12 medium+1 mM Glutamine+3% FBS • Plates: 96 well plate—Black, clear flat bottom • Incubation time: 3 days • Compound concentration: 10 point dilution starting from 10 uM to 0.0065 uM or a lower range when needed. • Viability assay at the end of incubation: Celltiter-Glo (CTG) from Promega.
(§4) Protocol: • Day 1: Plate cells in 96 well plate together with the appropriate concentration of compound.
(§5) Incubate for 3 days at 37° C. in 5% CO2 tissue culture incubator. • Day 4: Check viability of cells by adding CTG reagent and read luminescence in plate reader
(§6) SDH-WT and SDH-KO cells were grown in DMEM F12 supplemented with 1 mM Glutamine+3% FBS were treated with different concentrations of the indicated compounds in FIG. 11. Cell viability was determined 72 hours later by CellTiter Glue reagent (Promega), the luminescence was measured with ClarioStar reader (BMG) and the EC50s were calculated by Prism.
(§7) SDH-WT and SDH-KO cells were grown in DMEM F12 supplemented with 1 mM Glutamine+3% FBS were treated with different concentrations of the indicated compounds. Cell viability was determined 72 hours later by CellTiter Glue reagent (Promega), the luminescence was measured with ClarioStar reader (BMG) and the EC50s were calculated by Prism.
(§8) The cells were grown in DMEM F12 supplemented with 1 mM Glutamine+3% FBS were treated with different concentrations of the indicated compounds. Cell viability was determined 72 hours later by CellTiter Glue reagent (Promega), the luminescence was measured with ClarioStar reader (BMG) and the EC50s were calculated by Prism. Murine SDHB-WT/KO, HRAS transformed isogenic pair (FIG. 12A); UOK269, Human Tumor-derived SDHB-deficient RCC in their WT counterpart with re-expression of SDHB (FIG. 12B); and ACHN, RCC cells, and their SDHB-KO (SDHB CRISPRed out) isogenic cells (FIG. 12C).
For orientation: ATP-based viability assays read luminescence as a measure of living cells.

In a further experiment the test system is SDH-WT cells. The experiment is described as above. The format is cell-based, murine. Particulars: Mus musculus, 72 h, toxicity, SDH-WT cells, 3 days, CellTiter-Glo; read-out: EC50 (uM) SDH-WT. Here is the method:
as §1, §2, §3, §4, §5, §6, §7, §8

For `Cn1cnc2cc(CCNc3ncnc4c3sc3nc5c(cc34)COC(C)(C)C5)ccc21` [Compound 173], the EC50 in experiment [1] was < 1 µM; with SDH-WT cells, 3 to 10 µM.
The corresponding values for `CC1(C)Cc2nc3sc4c(NCCc5ccc(O)c([N+](=O)[O-])c5)ncnc4c3cc2CO1` [Compound 174] are 3 to 10 µM and < 1 µM.
`CC1(C)Cc2nc3sc4c(NCCc5ccc6ocnc6c5)ncnc4c3cc2CO1` [Compound 175]: the EC50 was 1 to 3 µM in experiment [1] and 3 to 10 µM with SDH-WT cells.
As for `CC(=O)OCc1nc2cc(CCNc3ncnc4c3sc3nc5c(cc34)COC(C)(C)C5)ccc2[nH]1` [Compound 176], the EC50 in experiment [1] was < 1 µM; in the experiment with SDH-WT cells, 3 to 10 µM.
As to `CC(O)c1nc2cc(CCNc3ncnc4c3sc3nc5c(cc34)COC(C)(C)C5)ccc2[nH]1` (stereo not shown) [Compound 177], the figures for the EC50 (in experiment [1]; in the experiment with SDH-WT cells) were 1 to 3 µM and 3 to 10 µM, respectively.
As for `CC(=O)c1nc2cc(CCNc3ncnc4c3sc3nc5c(cc34)COC(C)(C)C5)ccc2[nH]1` [Compound 178], the EC50 was < 1 µM in experiment [1] and 3 to 10 µM in the experiment with SDH-WT cells.
Regarding `CC1(C)Cc2nc3sc4c(NCCc5ccc6[nH]c(CO)nc6c5)ncnc4c3cc2CO1` [Compound 179], the EC50 was < 1 µM in experiment [1] and 3 to 10 µM in the experiment on SDH-WT cells.
On the same counts, the results for `CNc1ccc(CCNc2ncnc3c2sc2nc4c(cc23)COC(C)(C)C4)cc1[N+](=O)[O-]` [Compound 180] are < 1 µM and 3 to 10 µM.
For `CNc1ccc(CCN(C)c2ncnc3c2sc2nc4c(cc23)COC(C)(C)C4)cc1[N+](=O)[O-]` [Compound 181], the EC50 (in experiment [1]; with SDH-WT cells) was 3 to 10 µM in each case.
Consider `CC1(C)Cc2nc3sc4c(NCCc5ccc(NC(=O)C(F)(F)F)c([N+](=O)[O-])c5)ncnc4c3cc2CO1` [Compound 182], for which the EC50 in experiment [1] fell in the range of 1 to 3 µM; in the experiment on SDH-WT cells it was 3 to 10 µM.
On the same counts, the results for `CC(=O)OCC(=O)Cc1ccc(CCNc2ncnc3c2sc2nc4c(cc23)COC(C)(C)C4)cc1N` [Compound 183] are < 1 µM and 3 to 10 µM.
On the same counts, the results for `CC(=O)OCC(=O)Cc1ccc(CCNc2ncnc3c2sc2nc4c(cc23)COC(C)(C)C4)cc1[N+](=O)[O-]` [Compound 184] are 3 to 10 µM and 3 to 10 µM.
Regarding `CC(=O)OC(C)c1nc2cc(CCNc3ncnc4c3sc3nc5c(cc34)COC(C)(C)C5)ccc2[nH]1` (stereo not shown) [Compound 185], the values for the EC50 (in experiment [1]; with SDH-WT cells) were 1 to 3 µM and 3 to 10 µM, respectively.
On the same counts, the results for `CC(=O)OC(C)C(=O)Nc1ccc(CCNc2ncnc3c2sc2nc4c(cc23)COC(C)(C)C4)cc1N` (stereo not shown) [Compound 186] are 1 to 3 µM and 3 to 10 µM.
With `CC(=O)OC(C)C(=O)Nc1ccc(CCNc2ncnc3c2sc2nc4c(cc23)COC(C)(C)C4)cc1[N+](=O)[O-]` (stereo not shown) [Compound 187], the concentration giving a half-maximal response (EC50) is 3 to 10 µM in experiment [1] and 1 to 3 µM in the experiment on SDH-WT cells.
The corresponding values for `CC(C)c1nc2cc(CCNc3ncnc4c3sc3nc5c(cc34)COC(C)(C)C5)ccc2[nH]1` [Compound 188] are 3 to 10 µM and 1 to 3 µM.
The corresponding values for `CC1(C)Cc2nc3sc4c(NCCc5ccc6[nH]c(N)nc6c5)ncnc4c3cc2CO1` [Compound 189] are < 1 µM and 1 to 3 µM.
The corresponding values for `CC1(C)Cc2nc3sc4c(NCCc5ccc6[nH]c(-c7ccccc7)nc6c5)ncnc4c3cc2CO1` [Compound 190] are 1 to 3 µM and < 1 µM.
As for `CC(=O)CNc1ccc(CCNc2ncnc3c2sc2nc4c(cc23)COC(C)(C)C4)cc1F` [Compound 191], the values for the EC50 (in experiment [1]; in the experiment with SDH-WT cells) were 1 to 3 µM and 3 to 10 µM, respectively.
On to `CC1(C)Cc2nc3sc4c(NCCc5ccc(NCc6ccccc6)c(N)c5)ncnc4c3cc2CO1` [Compound 192], for which the EC50 (in experiment [1]; in the experiment with SDH-WT cells) was < 1 µM each time.
On to `CC1(C)Cc2nc3sc4c(NCCc5ccc(N)c(N)c5)ncnc4c3cc2CO1` [Compound 193], for which the EC50 is < 1 µM in experiment [1] and 1 to 3 µM with SDH-WT cells.
The corresponding values for `Cc1nc2cc(CCNc3ncnc4c3sc3nc5c(cc34)COC(C)(C)C5)ccc2[nH]1` [Compound 194] are < 1 µM and < 1 µM.
On to `COc1nc2cc(CCNc3ncnc4c3sc3nc5c(cc34)COC(C)(C)C5)ccc2[nH]1` [Compound 195], for which the EC50 (in experiment [1]; in the experiment on SDH-WT cells) was < 1 µM throughout.
With `CC1(C)Cc2nc3sc4c(NCCc5ccc6[nH]c(=O)[nH]c6c5)ncnc4c3cc2CO1` [Compound 196], the EC50 in experiment [1] was < 1 µM; with SDH-WT cells it was 3 to 10 µM.
Take `CC1(C)Cc2nc3sc4c(NCCc5ccc(NC(=O)c6ccccc6)c([N+](=O)[O-])c5)ncnc4c3cc2CO1` [Compound 197]: the EC50 was 1 to 3 µM in experiment [1] and 3 to 10 µM in the experiment with SDH-WT cells.
On to `CC(=O)CN(C(=O)C(F)(F)F)c1ccc(CCNc2ncnc3c2sc2nc4c(cc23)COC(C)(C)C4)cc1F` [Compound 198], for which the half-maximal effective concentration (EC50) in experiment [1] is < 1 µM; in the experiment on SDH-WT cells, 3 to 10 µM.
On to `CC(C)C(=O)Nc1ccc(CCNc2ncnc3c2sc2nc4c(cc23)COC(C)(C)C4)cc1[N+](=O)[O-]` [Compound 199], for which the EC50 (in experiment [1]; with SDH-WT cells) was 1 to 3 µM throughout.
Take `CC1(C)Cc2nc3sc4c(NCCc5ccc(NC(=O)C(F)(F)F)c(F)c5)ncnc4c3cc2CO1` [Compound 200]: the EC50 in experiment [1] lay within 1 to 3 µM; in the experiment with SDH-WT cells it was 3 to 10 µM.
In the case of `CC1(C)Cc2nc3sc4c(NCCc5ccc6[nH]nnc6c5)ncnc4c3cc2CO1` [Compound 201], the values for the EC50 (in experiment [1]; with SDH-WT cells) were < 1 µM and 1 to 3 µM, respectively.
For `CC1(C)Cc2nc3sc4c(NCCc5ccc6occc6c5)ncnc4c3cc2CO1` [Compound 202], the EC50 was < 1 µM in experiment [1] and 3 to 10 µM in the experiment with SDH-WT cells.
`CC1(C)Cc2nc3sc4c(NCCc5ccc(N)c(F)c5)ncnc4c3cc2CO1` [Compound 203]: the results for the EC50 (in experiment [1]; with SDH-WT cells) were < 1 µM and > 10 µM, respectively.
For `CC(=O)Nc1ccc(CCNc2ncnc3c2sc2nc4c(cc23)COC(C)(C)C4)cc1F` [Compound 204], the concentration for a half-maximal effect (EC50) is 1 to 3 µM in experiment [1] and > 10 µM in the experiment with SDH-WT cells.
On to `CC1(C)Cc2nc3sc4c(NCCc5ccc(N)c([N+](=O)[O-])c5)ncnc4c3cc2CO1` [Compound 205], for which the EC50 was < 1 µM in experiment [1] and 3 to 10 µM with SDH-WT cells.
Regarding `CC1(C)Cc2nc3sc4c(NCCc5ccc6[nH]cnc6c5)ncnc4c3c(-c3ccccc3)c2CO1` [Compound 206], the EC50 (in experiment [1]; with SDH-WT cells) was < 1 µM each time.
Consider `COc1ccc(CCNC(=O)c2sc3nc4c(cc3c2NC(=O)C(F)(F)F)COC(C)(C)C4)cc1F` [Compound 207], for which the EC50 in experiment [1] is 3 to 10 µM; with SDH-WT cells, 1 to 3 µM.
Consider `COc1ccc(CCNC(=O)c2sc3nc4c(cc3c2N)COC(C)(C)C4)cc1F` [Compound 208], for which the EC50 (in experiment [1]; in the experiment with SDH-WT cells) was > 10 µM throughout.
As to `COc1ccc(CCNc2ncnc3c2sc2nc4c(cc23)CC(C(=O)O)CC4)cc1F` (stereo not shown) [Compound 209], the EC50 (in experiment [1]; in the experiment with SDH-WT cells) was > 10 µM in each case.
For `CC1(C)Cc2nc3sc4c(NCCc5ccc6[nH]cnc6c5)ncnc4c3c(C(=O)OCCCCCCCC(=O)O)c2CO1` [Compound 210], the concentration for a half-maximal effect (EC50) in experiment [1] is 3 to 10 µM; in the experiment with SDH-WT cells, < 1 µM.
`CC1(C)Cc2nc3sc4c(NCCc5ccc6[nH]cnc6c5)ncnc4c3c(C(=O)OCCCCCCCCCCCCCCCC(=O)O)c2CO1` [Compound 211]: the EC50 (in experiment [1]; with SDH-WT cells) was 3 to 10 µM throughout.
As for `CC1(C)Cc2nc3sc4c(NCCc5ccc6[nH]cnc6c5)ncnc4c3c(C(=O)OCCCCCCCCCCCC(=O)O)c2CO1` [Compound 212], the EC50 (in experiment [1]; in the experiment with SDH-WT cells) was 3 to 10 µM each time.
Turning to `COCOCCOCCOCCOCc1c2c(nc3sc4c(NCCc5ccc6[nH]cnc6c5)ncnc4c13)CC(C)(C)OC2` [Compound 213], the 50% effective concentration (EC50) was 1 to 3 µM in experiment [1] and > 10 µM with SDH-WT cells.
In the case of `COCCOCCOCCOCCOCCOCc1c2c(nc3sc4c(NCCc5ccc6[nH]cnc6c5)ncnc4c13)CC(C)(C)OC2` [Compound 214], the 50% effective concentration (EC50) is 1 to 3 µM in experiment [1] and > 10 µM in the experiment on SDH-WT cells.
In the case of `CCCCCCNc1nc(C)nc2c1sc1nc3c(cc12)COC(C)(C)C3` [Compound 215], the EC50 (in experiment [1]; in the experiment on SDH-WT cells) was > 10 µM each time.
Take `CCCCCCNc1ncnc2c1sc1nc3c(cc12)COC(C)(C)C3` [Compound 216]: the 50% effective concentration (EC50) (in experiment [1]; in the experiment with SDH-WT cells) was > 10 µM each time.
